From patent US20150038435A1, “N-TERMINALLY MODIFIED OLIGOPEPTIDES AND USES THEREOF” (Novo Nordisk A/S, priority 2012, published 2015)
*: point of attachment. Lauroyl = CCCCCCCCCCCC(=O)*

Columns and labels:
[1] = Hydrophobicity: retention time during reverse phase HPLC; format: physicochemical; details: Acquity CSH C18; pH 7.2 buffer/CH3CN gradient; 40° C.
Text: The retention time (RT) during reverse phase HPLC was taken as a measure of hydrophobicity of an N-terminally modified peptide or oligopeptide of the invention, where the connection is: The longer the RT, the more hydrophobic N-terminally modified peptide or oligopeptide. The following running conditions were applied during HPLC analysis:
Buffer B: 70% (v/v) aq. CH3CN

Trypsin = assay: Inhibition of enzymatic degradation of a model GLP-1 (FRET substrate) by trypsin; format: biochemical
Text: (§1) The use of Förster resonance energy transfer (FRET), also known as fluorescence resonance energy transfer, substrates to monitor activity of proteolytic enzymes is known in the field (for example Anjuere, F. et al. (1993). Biochem J 291 (Pt 3), 869-73).
(§2) Model GLP-1 analogue was designed as FRET substrate by incorporation of 7-Methoxycoumarin-4-acetic acid (MCA) group as the donor chromophore and dinitrophenol group (DNP) as the acceptor chromophore.
(§3) An assay following the increase in fluorescence as a function of time was established in 96 well format using Varioskan Flash Multimode Meter (Thermo Scientific). Each well contained 70 μl of Dulbecco's phosphate buffer saline (Invitrogen catalogue #14190-094), 10 μl of 100 μM GLP-1 FRET substrate, 10 μl of N-terminally acylated peptide or oligopeptide of the invention in varying concentration and 10 μl of a stock solution of an enzyme (chymotrypsin, trypsin, elastase, etc.). The incubations were performed at 37° C. Fluorescence (320 nm excitation wavelength and 405 nm emission wavelength) was measured immediately after addition of the enzyme to the 96 well plate and also every minute for at least the next 30 minutes. The concentration of the enzyme was optimized to allow determination of slopes for the time course of initial fluorescence increase with and without the N-terminally acylated peptides or oligopeptides of the invention. The slopes were determined by linear regression of the linear part of the fluorescence trace (for example, the first 10 min of the reaction). Each assay was performed in duplicate and average of the two traces was included in the calculations. The relative effect of N-terminally acylated peptide or oligopeptides of the invention on enzymatic degradation of GLP-1 FRET substrate was obtained by comparison of the slopes achieved by the same concentration of the N-terminally acylated peptide or oligopeptides. […] This was done by plotting the slopes achieved with different concentrations of the N-terminally acylated peptide or oligopeptides of the invention as a function of their concentrations and fitting the experimental results using, for example, sigmoidal logistic regression (2 parameters, Sigma Plot v 11). Inhibition constants for the interaction between the N-terminally acylated peptide or oligopeptides of the invention and proteolytic enzymes were also obtained by performing the assay described above with varying concentrations of the inhibitor and substrate and analyzing the results, for example, by double reciprocal transformation as known to the person skilled in the art and described for example in Hubalek, F. et al., J. Med. Chem. 47, 1760-1766 (2004).
(§4) The EC50 was determined for the following compounds. EC50±standard error is reported if the results of at least 3 independent measurements were available.

Chymotrypsin = assay: Inhibition of enzymatic degradation of a model GLP-1 (FRET substrate) by chymotrypsin; format: biochemical
Text: as §1, §2, §3, §4

[2] = compound 0.1 mM, buffer containing 8% DMSO

Substance	RT (retention time during reverse phase HPLC as a measure of hydrophobicity) [1] [min]	Slope of the initial increase in fluorescence obtained during incubation with 0.001 mg/ml Trypsin (Trypsin; [2])	Slope of the initial increase in fluorescence obtained during incubation with 0.001 mg/ml Chymotrypsin (Chymotrypsin; [2])	Slope of the initial increase in fluorescence obtained during incubation with 0.001 mg/ml Trypsin (Trypsin; compound 1 mM)	Slope of the initial increase in fluorescence obtained during incubation with 0.001 mg/ml Chymotrypsin (Chymotrypsin; compound 1 mM)	EC50 (Trypsin; read-out: EC50 Trypsin (0.001 mg/ml), 0.001 mg/ml trypsin, 37° C.) [µM]	EC50 (Chymotrypsin; read-out: EC50 Chymotrypsin (0.001 mg/ml), 0.001 mg/ml chymotrypsin, 37° C., ± standard error if at least 3 measurements) [µM]
N-dodecanoyl-Ala-Ala-Gln-Tyr-OH (Lauroyl-AAQY-OH; SMILES CCCCCCCCCCCC(=O)N[C@@H](C)C(=O)N[C@@H](C)C(=O)N[C@@H](CCC(N)=O)C(=O)N[C@@H](Cc1ccc(O)cc1)C(=O)O) [Example 61]	8.28	2.07	2.20	–	–	–	–
N-dodecanoyl-Ala-Ala-Glu-Tyr-OH (Lauroyl-AAEY-OH; SMILES CCCCCCCCCCCC(=O)N[C@@H](C)C(=O)N[C@@H](C)C(=O)N[C@@H](CCC(=O)O)C(=O)N[C@@H](Cc1ccc(O)cc1)C(=O)O) [Example 62]	4.36	1.66	1.35	–	–	–	–
N-dodecanoyl-Ala-Ala-Gly-Tyr-OH (Lauroyl-AAGY-OH; SMILES CCCCCCCCCCCC(=O)N[C@@H](C)C(=O)N[C@@H](C)C(=O)NCC(=O)N[C@@H](Cc1ccc(O)cc1)C(=O)O) [Example 63]	5.46	1.90	1.89	–	–	–	–
N-dodecanoyl-Ala-Ala-His-Tyr-OH (Lauroyl-AAHY-OH; SMILES CCCCCCCCCCCC(=O)N[C@@H](C)C(=O)N[C@@H](C)C(=O)N[C@@H](Cc1c[nH]cn1)C(=O)N[C@@H](Cc1ccc(O)cc1)C(=O)O) [Example 64]	5.33	2.23	1.23	–	–	–	–
N-dodecanoyl-Ala-Ala-Ile-Tyr-OH (Lauroyl-AAIY-OH; SMILES CCCCCCCCCCCC(=O)N[C@@H](C)C(=O)N[C@@H](C)C(=O)N[C@H](C(=O)N[C@@H](Cc1ccc(O)cc1)C(=O)O)[C@@H](C)CC) [Example 65]	3.12	1.60	2.04	–	–	–	–
N-dodecanoyl-Ala-Ala-Leu-Tyr-OH (Lauroyl-AALY-OH; SMILES CCCCCCCCCCCC(=O)N[C@@H](C)C(=O)N[C@@H](C)C(=O)N[C@@H](CC(C)C)C(=O)N[C@@H](Cc1ccc(O)cc1)C(=O)O) [Example 66]	7.18	1.98	0.18	–	–	–	–
N-dodecanoyl-Ala-Ala-Lys-Tyr-OH (Lauroyl-AAKY-OH; SMILES CCCCCCCCCCCC(=O)N[C@@H](C)C(=O)N[C@@H](C)C(=O)N[C@@H](CCCCN)C(=O)N[C@@H](Cc1ccc(O)cc1)C(=O)O) [Example 67]	4.7	1.89	0.94	–	–	–	–
N-dodecanoyl-Ala-Ala-Met-Tyr-OH (Lauroyl-AAMY-OH; SMILES CCCCCCCCCCCC(=O)N[C@@H](C)C(=O)N[C@@H](C)C(=O)N[C@@H](CCSC)C(=O)N[C@@H](Cc1ccc(O)cc1)C(=O)O) [Example 68]	6.68	1.73	0.60	–	–	–	–
N-dodecanoyl-Ala-Ala-Pro-DPhe-OH [Example 4]	6.89	–	–	0.83	0.08	–	–
N-dodecanoyl-Ala-Ala-Pro-Leu-OH (Lauroyl-AAPL-OH; SMILES CCCCCCCCCCCC(=O)N[C@@H](C)C(=O)N[C@@H](C)C(=O)N1CCC[C@H]1C(=O)N[C@@H](CC(C)C)C(=O)O) [Example 11]	1.22	–	–	3.06	0.77	–	–
N-dodecanoyl-Ala-Ala-Pro-Trp-OH (Lauroyl-AAPW-OH; SMILES CCCCCCCCCCCC(=O)N[C@@H](C)C(=O)N[C@@H](C)C(=O)N1CCC[C@H]1C(=O)N[C@@H](Cc1c[nH]c2ccccc12)C(=O)O) [Example 26]	7.03	–	–	–	–	413	29 ± 2
N-dodecanoyl-Ala-Ala-Pro-Tyr-OH [Example 69] (Lauroyl-AAPY-OH; SMILES CCCCCCCCCCCC(=O)N[C@@H](C)C(=O)N[C@@H](C)C(=O)N1CCC[C@H]1C(=O)N[C@@H](Cc1ccc(O)cc1)C(=O)O)	5.79	1.83	0.43	–	–	–	–
N-dodecanoyl-Ala-Ala-Ser-Tyr-OH (Lauroyl-AASY-OH; SMILES CCCCCCCCCCCC(=O)N[C@@H](C)C(=O)N[C@@H](C)C(=O)N[C@@H](CO)C(=O)N[C@@H](Cc1ccc(O)cc1)C(=O)O) [Example 70]	5.43	1.45	1.50	–	–	–	–
N-dodecanoyl-Ala-Ala-Thr-Tyr-OH (Lauroyl-AATY-OH; SMILES CCCCCCCCCCCC(=O)N[C@@H](C)C(=O)N[C@@H](C)C(=O)N[C@H](C(=O)N[C@@H](Cc1ccc(O)cc1)C(=O)O)[C@@H](C)O) [Example 71]	5.61	1.76	0.91	–	–	–	–
N-dodecanoyl-Ala-Ala-Val-Tyr-OH (Lauroyl-AAVY-OH; SMILES CCCCCCCCCCCC(=O)N[C@@H](C)C(=O)N[C@@H](C)C(=O)N[C@H](C(=O)N[C@@H](Cc1ccc(O)cc1)C(=O)O)C(C)C) [Example 72]	6.44	1.52	1.18	–	–	–	–
N-dodecanoyl-Ala-Arg-Pro-Tyr-OH (Lauroyl-ARPY-OH; SMILES CCCCCCCCCCCC(=O)N[C@@H](C)C(=O)N[C@@H](CCCNC(=N)N)C(=O)N1CCC[C@H]1C(=O)N[C@@H](Cc1ccc(O)cc1)C(=O)O) [Example 73]	5.34	1.67	0.08	–	–	–	–
N-dodecanoyl-Ala-Asn-Pro-Tyr-OH (Lauroyl-ANPY-OH; SMILES CCCCCCCCCCCC(=O)N[C@@H](C)C(=O)N[C@@H](CC(N)=O)C(=O)N1CCC[C@H]1C(=O)N[C@@H](Cc1ccc(O)cc1)C(=O)O) [Example 74]	5.27	2.27	1.66	–	–	–	–
